Results: patent US9422267B2, “Fused pyrimidine compounds and use thereof” (Medivation Technologies, Inc., priority 2012, dated 2016)
One block for each compound: values may come before it.

How the values were obtained:
JAK2 = JAK2 (Homo sapiens, UniProt O60674); experiment: Caliper kinase profiling: JAK2; assay type: biochemical; details: JAK2, 1 μM; read-out: Average % Inh @ 1 μM
EPHA5 = EPHA5 (Homo sapiens, UniProt P54756); experiment: Caliper kinase profiling: EPHA5; assay type: biochemical; details: EPHA5, 1 μM; read-out: Average % Inh @ 1 μM
MET(M1250T) = MET(M1250T) (Homo sapiens, UniProt P08581, M1250T); experiment: Caliper kinase profiling: MET(M1250T); assay type: biochemical
BTK = BTK (Homo sapiens, UniProt Q06187); experiment: Caliper kinase profiling: BTK; assay type: biochemical; details: read-out: Average % Inh @ 1 μM
RET = RET (Homo sapiens, UniProt P07949); experiment: Caliper kinase profiling: RET; assay type: biochemical
Fer = Fer (Homo sapiens, UniProt P16591); experiment: Caliper kinase profiling: Fer; assay type: biochemical
EPHB1 = EPHB1 (Homo sapiens, UniProt P54762); experiment: Caliper kinase profiling: EPHB1; assay type: biochemical; details: EPHB1, 1 μM; read-out: Average % Inh @ 1 μM
RET(Y791F) = RET(Y791F) (Homo sapiens, UniProt P07949, Y791F); experiment: Caliper kinase profiling: RET(Y791F); assay type: biochemical
MST2 = target: T1, MST2 (Homo sapiens, UniProt Q13188); experiment: Caliper kinase profiling: MST2; assay type: biochemical
T1 sequence (Q13188 1-491): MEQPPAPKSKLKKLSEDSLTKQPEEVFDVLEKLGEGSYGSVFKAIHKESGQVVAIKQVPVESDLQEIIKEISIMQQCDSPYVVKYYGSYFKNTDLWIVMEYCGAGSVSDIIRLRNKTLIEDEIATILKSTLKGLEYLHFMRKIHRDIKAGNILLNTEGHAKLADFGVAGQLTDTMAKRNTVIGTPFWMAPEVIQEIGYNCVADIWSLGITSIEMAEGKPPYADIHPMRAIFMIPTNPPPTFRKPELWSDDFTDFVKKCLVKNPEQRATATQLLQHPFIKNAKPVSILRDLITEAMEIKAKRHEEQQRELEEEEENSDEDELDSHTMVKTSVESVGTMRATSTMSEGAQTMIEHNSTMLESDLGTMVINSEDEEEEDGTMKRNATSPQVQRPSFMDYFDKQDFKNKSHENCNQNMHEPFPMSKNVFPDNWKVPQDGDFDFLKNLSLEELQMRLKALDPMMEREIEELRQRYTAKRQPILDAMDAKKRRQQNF

EPHA3 = EPHA3 (Homo sapiens, UniProt P29320); experiment: Caliper kinase profiling: EPHA3; assay type: biochemical; details: EPHA3, 1 μM; read-out: Average % Inh @ 1 μM
[1] = system: human breast cancer MCF7 cells; experiment: Efficacy in xenograft model of human breast cancer; assay type: in vivo, mice
Procedure: To evaluate the efficacy of tumor growth inhibition, the compound 8b was studied using human cancer mouse models. The models are prepared by subcutaneously or orthotopically implanting mice with human cancer cells. When the tumor size of the mice develops (e.g., reaches 100 mm^3), the mice are divided into groups for treatment with compound 8b (where different groups receiving the compound 8b may be administered different amounts of the compound 8b) or are provided no compound as a control. The mice are treated (e.g., orally administered a compound of the invention) for a period of time. During the course of the study, the tumor is measured and the weight of the mice is determined. After the treatment period, the mice are sacrificed shortly (e.g. 1 or 2 hours) after the final dose. Blood and tissue are collected for biochemical analysis.
To evaluate the efficacy of tumor growth inhibition, compound 8b was studied using a human breast cancer mouse model. […]
The appropriate amount of compound 8b was sonicated in a PEG-400 solution (80% w/v in case of Example B6B; and 50% w/v in case of Example B6C) to completely dissolve the compound, followed by dropwise addition of the required amount of H2O. […] During the course of the study, the tumor was measured and the weight of the mice was determined. […]

[2] = 10 nM, read-out: Average % Inh @ 10 nM
[3] = 100 nM, read-out: Average % Inh @ 100 nM
[4] = 1 μM, read-out: Average % Inh @ 1 μM

Chain of RET(Y791F) (P07949 29-1114 Y791F): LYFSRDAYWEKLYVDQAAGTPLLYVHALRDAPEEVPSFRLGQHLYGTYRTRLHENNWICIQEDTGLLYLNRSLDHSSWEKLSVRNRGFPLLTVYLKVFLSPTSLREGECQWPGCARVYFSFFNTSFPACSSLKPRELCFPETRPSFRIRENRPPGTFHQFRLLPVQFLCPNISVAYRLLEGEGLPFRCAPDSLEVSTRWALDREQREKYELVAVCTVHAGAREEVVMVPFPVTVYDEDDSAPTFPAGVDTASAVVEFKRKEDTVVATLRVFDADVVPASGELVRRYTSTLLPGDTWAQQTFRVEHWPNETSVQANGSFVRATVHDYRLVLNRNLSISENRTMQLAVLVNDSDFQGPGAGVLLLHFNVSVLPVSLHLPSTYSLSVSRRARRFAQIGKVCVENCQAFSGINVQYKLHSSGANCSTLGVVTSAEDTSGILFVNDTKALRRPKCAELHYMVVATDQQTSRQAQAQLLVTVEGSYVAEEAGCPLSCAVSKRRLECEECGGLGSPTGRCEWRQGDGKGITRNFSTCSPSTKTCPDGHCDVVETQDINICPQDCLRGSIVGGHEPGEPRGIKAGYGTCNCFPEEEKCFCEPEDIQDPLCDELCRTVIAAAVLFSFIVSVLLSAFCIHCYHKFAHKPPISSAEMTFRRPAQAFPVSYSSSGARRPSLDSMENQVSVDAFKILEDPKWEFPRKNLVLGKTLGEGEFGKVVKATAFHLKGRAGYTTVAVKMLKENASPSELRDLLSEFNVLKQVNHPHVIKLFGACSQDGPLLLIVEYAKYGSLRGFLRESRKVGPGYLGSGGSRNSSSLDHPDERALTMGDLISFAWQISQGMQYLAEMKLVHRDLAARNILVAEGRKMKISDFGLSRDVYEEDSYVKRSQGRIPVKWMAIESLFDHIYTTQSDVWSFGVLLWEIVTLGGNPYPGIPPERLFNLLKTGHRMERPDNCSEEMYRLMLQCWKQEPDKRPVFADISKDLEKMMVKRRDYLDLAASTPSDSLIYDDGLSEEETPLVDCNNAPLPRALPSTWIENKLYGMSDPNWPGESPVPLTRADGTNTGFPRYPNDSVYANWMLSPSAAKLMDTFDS
Chain of RET (P07949 29-1114): as the sequence (P07949 29-1114 Y791F) above, with F763Y counted along it
Chain of MET(M1250T) (P08581 25-1390 M1250T): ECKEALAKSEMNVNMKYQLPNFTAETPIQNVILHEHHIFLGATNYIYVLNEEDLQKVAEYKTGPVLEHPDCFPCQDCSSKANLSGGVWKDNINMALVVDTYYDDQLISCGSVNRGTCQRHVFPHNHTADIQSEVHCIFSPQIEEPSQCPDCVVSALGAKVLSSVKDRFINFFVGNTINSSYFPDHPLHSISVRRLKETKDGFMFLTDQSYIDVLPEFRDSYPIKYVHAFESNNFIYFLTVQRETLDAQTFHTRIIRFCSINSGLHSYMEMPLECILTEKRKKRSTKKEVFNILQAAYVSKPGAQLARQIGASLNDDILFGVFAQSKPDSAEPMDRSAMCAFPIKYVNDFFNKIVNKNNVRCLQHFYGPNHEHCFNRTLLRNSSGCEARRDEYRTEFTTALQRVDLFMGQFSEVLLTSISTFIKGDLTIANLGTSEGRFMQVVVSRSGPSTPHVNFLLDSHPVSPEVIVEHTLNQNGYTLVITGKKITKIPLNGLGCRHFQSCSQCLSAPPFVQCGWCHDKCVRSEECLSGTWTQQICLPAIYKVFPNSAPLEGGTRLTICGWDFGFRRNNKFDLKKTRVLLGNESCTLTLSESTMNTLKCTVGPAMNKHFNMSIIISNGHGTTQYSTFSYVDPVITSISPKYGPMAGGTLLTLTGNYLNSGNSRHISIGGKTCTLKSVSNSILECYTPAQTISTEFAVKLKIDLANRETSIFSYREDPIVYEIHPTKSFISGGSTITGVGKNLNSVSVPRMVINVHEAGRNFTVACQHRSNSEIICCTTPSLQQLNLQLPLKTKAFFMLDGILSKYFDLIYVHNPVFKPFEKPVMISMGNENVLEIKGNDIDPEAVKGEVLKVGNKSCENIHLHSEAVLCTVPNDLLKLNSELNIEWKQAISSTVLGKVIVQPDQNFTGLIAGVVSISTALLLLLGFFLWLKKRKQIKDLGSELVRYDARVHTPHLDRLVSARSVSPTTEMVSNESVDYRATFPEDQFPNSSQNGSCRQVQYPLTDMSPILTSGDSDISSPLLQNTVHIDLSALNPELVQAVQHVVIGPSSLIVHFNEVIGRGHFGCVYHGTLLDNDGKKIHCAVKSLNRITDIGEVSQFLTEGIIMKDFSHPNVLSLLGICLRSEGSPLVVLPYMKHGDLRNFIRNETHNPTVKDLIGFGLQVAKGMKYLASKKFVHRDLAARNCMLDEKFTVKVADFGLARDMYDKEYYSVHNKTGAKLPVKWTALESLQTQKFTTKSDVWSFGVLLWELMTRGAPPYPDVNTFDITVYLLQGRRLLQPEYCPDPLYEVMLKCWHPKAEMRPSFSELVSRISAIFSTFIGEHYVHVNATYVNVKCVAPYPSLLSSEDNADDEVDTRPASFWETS
Chain of Fer (P16591 whole entry): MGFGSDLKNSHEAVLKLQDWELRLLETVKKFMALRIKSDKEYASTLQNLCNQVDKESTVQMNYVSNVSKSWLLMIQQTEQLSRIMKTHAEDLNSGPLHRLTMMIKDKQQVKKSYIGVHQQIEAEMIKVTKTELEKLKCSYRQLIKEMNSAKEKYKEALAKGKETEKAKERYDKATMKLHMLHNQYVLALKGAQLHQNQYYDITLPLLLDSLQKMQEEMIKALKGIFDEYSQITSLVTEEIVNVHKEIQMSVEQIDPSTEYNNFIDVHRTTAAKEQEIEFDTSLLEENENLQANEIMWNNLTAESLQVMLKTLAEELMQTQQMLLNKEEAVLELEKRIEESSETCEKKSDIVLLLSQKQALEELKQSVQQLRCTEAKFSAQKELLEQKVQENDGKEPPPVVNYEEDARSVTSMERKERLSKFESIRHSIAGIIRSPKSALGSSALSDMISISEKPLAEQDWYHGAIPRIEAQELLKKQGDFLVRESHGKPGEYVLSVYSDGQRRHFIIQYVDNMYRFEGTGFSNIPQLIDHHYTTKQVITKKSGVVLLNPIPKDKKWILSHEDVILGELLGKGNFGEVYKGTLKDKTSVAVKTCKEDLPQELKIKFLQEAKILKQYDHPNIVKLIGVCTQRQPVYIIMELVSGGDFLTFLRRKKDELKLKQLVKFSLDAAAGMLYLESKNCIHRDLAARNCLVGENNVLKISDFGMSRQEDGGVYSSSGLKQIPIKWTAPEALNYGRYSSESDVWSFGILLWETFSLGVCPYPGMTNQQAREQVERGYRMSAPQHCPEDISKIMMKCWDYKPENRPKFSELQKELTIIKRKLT
Chain of EPHA3 (P29320 21-983): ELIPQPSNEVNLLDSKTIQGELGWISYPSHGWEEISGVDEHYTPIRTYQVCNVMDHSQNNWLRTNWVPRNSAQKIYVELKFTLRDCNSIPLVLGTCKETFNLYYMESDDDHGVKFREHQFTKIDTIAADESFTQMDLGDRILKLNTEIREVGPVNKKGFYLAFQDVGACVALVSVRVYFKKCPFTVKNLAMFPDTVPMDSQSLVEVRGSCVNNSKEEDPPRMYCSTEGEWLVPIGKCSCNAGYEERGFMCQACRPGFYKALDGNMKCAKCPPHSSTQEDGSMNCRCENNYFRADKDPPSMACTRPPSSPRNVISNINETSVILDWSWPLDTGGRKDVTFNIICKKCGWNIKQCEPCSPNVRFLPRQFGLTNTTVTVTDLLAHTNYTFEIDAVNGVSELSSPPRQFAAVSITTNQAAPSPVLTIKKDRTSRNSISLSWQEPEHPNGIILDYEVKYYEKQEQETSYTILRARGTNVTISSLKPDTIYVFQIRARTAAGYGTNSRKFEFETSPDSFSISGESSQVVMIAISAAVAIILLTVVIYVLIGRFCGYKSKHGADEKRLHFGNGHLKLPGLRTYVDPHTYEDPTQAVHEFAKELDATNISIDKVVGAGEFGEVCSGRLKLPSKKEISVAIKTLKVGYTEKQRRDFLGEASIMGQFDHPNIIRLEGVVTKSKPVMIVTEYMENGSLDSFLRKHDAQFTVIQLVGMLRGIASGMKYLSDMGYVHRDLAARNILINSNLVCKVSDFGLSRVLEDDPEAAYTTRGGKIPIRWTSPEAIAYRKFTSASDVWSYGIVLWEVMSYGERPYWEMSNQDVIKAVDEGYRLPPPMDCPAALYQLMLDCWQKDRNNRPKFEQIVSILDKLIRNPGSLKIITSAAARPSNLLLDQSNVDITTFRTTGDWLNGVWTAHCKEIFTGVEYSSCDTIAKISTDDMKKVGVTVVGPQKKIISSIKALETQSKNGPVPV
Chain of BTK (Q06187 whole entry): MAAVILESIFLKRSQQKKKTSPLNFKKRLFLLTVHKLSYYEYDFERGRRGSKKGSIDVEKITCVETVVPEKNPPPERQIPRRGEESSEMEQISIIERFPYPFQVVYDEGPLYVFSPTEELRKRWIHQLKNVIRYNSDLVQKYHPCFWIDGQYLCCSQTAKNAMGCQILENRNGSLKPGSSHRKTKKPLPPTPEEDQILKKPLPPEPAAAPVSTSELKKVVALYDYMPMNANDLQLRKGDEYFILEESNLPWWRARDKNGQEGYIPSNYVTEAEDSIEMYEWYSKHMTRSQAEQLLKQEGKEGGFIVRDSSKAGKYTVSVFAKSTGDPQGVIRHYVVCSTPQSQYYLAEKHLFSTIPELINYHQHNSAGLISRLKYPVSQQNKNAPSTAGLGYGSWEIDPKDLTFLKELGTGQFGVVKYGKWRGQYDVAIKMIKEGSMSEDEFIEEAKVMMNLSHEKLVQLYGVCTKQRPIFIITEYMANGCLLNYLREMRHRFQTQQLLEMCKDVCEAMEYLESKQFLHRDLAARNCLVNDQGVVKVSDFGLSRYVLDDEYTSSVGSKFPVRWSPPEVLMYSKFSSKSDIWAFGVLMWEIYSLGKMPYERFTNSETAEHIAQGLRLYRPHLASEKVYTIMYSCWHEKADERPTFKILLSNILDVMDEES

inhibition at 1 µM (JAK2): > 60% | inhibition at 1 µM (EPHA5): > 60% | inhibition at 0.01 µM (MET(M1250T); MET M1250T, 10 nM, read-out: Average % Inh @ 10 nM): < 39% | inhibition at 0.1 µM (MET(M1250T); MET M1250T, 100 nM, read-out: Average % Inh @ 100 nM): < 39% | inhibition at 1 µM (MET(M1250T); MET(M1250T), 1 μM, read-out: Average % Inh @ 1 μM): > 60% | inhibition at 1 µM (BTK): 40 to 59% | inhibition at 0.01 µM (RET; [2]): < 39% | inhibition at 0.1 µM (RET; [3]): 40 to 59% | inhibition at 1 µM (RET; [4]): > 60% | inhibition at 0.01 µM (Fer; [2]): < 39% | inhibition at 0.1 µM (Fer; [3]): > 60% | inhibition at 1 µM (Fer; [4]): > 60% | inhibition at 1 µM (EPHB1): > 60% | inhibition at 0.01 µM (RET(Y791F); [2]): < 39% | inhibition at 0.1 µM (RET(Y791F); [3]): 40 to 59% | inhibition at 1 µM (RET(Y791F); [4]): > 60% | inhibition at 0.01 µM (MST2; MST2, 10 nM, read-out: Average % Inh @ 10 nM): < 39% | inhibition at 0.1 µM (MST2; MST2, 100 nM, read-out: Average % Inh @ 100 nM): < 39% | inhibition at 1 µM (MST2; MST2, 1 μM, read-out: Average % Inh @ 1 μM): > 60% | inhibition at 1 µM (EPHA3): 40 to 59%
SMILES: O=C(Nc1ccc(F)nc1)C1CCCN1c1nc2c(c(Nc3cc(C4CC4)[nH]n3)n1)CCC2 (single isomer, unassigned) [Compound 2b, 1-(4-(5-cyclopropyl-1H-pyrazol-3-ylamino)-6,7-dihydro-5H-cyclopenta[d]pyrimidin-2-yl)-N-(6-fluoropyridin-3-yl)pyrrolidine-2-carboxamide]

SMILES: CC(C)c1cc(Nc2nc(N3CCCC3C(=O)Nc3ccc(F)nc3)nc3c2CCC3)n[nH]1 (single isomer, unassigned) [Compound 8b]
tumor burden ([1]; MCF7 breast cancer model, nude mice, 10 and 15 mg/kg/po, various schedules (FIG. 2)): dose-dependently and significantly reduced tumor burden | body weights of the mice ([1]; MCF7 xenograft model (FIG. 4)): dose-dependently reduced body weights
